In patent publication US20180044350A1, “THERAPEUTIC CYCLIC COMPOUNDS AS IMMUNOMODULATORS” (priority 2015, published 2018):

Molecular target: T1, Recombinant mouse PD-L1 (Mus musculus, UniProt Q9EP73)
T1 construct: Fc (Fc chimera); purchased R&D Systems 1019-B7-100
Test: Rescue of mouse splenocyte proliferation in the presence of recombinant PD-L1 (CFSE proliferation assay)
Type: cell-based
Conditions: 100 nM compound; anti-CD3/CD28 stimulated CFSE-labelled mouse splenocytes + PD-L1, 72 h; normalised to stimulated splenocyte proliferation as 100%; read-out: Percent rescue of proliferation (@100 nM compound concentration)
Protocol: Rescue of Mouse Splenocyte Proliferation in the Presence of Recombinant PD-L1
Recombinant mouse PD-L1 (rm-PDL-1, cat no: 1019-B7-100; R&D Systems) were used as the source of PD-L1.
Mouse splenocytes harvested from 6-8 weeks old C57 BL6 mice; RPMI 1640 (GIBCO, Cat #11875); DMEM with high glucose (GIBCO, Cat #D6429); Fetal Bovine Serum └Hyclone, Cat #SH30071.03┘; Penicillin (10000 unit/mL)-Streptomycin(10,000 μg/mL) Liquid (GIBCO, Cat #15140-122); MEM Sodium Pyruvate solution 100 mM (100×), Liquid (GIBCO, Cat #11360); Nonessential amino acid (GIBCO, Cat #11140); L-Glutamine (GIBCO, Cat #25030); Anti-CD3 antibody (eBiosciences—16-0032); Anti-CD28 antibody (eBiosciences—16-0281); ACK lysis buffer (1 mL) (GIBCO, Cat #-A10492); Histopaque (density-1.083 gm/mL) (SIGMA 10831); Trypan blue solution (SIGMA-T8154); 2 mL Norm Ject Luer Lock syringe-(Sigma 2014-12); 40 μm nylon cell strainer (BD FALCON 35230); Hemacytometer (Bright line-SIGMA Z359629); FACS Buffer (PBS/0.1% BSA): Phosphate Buffered Saline (PBS) pH 7.2 (HiMedia TS1006) with 0.1% Bovine Serum Albumin (BSA) (SIGMA A7050) and sodium azide (SIGMA 08591); 5 mM stock solution of CFSE: CFSE stock solution was prepared by diluting lyophilized CFSE with 180 μL of Dimethyl sulfoxide (DMSO C2H6SO, SIGMA-D-5879) and aliquoted in to tubes for further use. Working concentrations were titrated from 10 μM to 1 μM. (eBioscience-650850-85); 0.05% Trypsin and 0.02% EDTA (SIGMA 59417C); 96-well format ELISA plates (Corning CLS3390); BD FACS caliber (E6016); Recombinant mouse B7-H1/PDL1 Fc Chimera, (rm-PD-L1 cat no: 1019-B7-100).
Splenocytes harvested in a 50 mL falcon tube by mashing mouse spleen in a 40 μm cell strainer were further treated with 1 mL ACK lysis buffer for 5 min at room temperature. After washing with 9 mL of RPMI complete media, cells were re-suspended in 3 mL of 1×PBS in a 15 mL tube. 3 mL of Histopaque was added carefully to the bottom of the tube without disturbing overlaying splenocyte suspension. After centrifuging at 800×g for 20 min at room temperature, the opaque layer of splenocytes was collected carefully without disturbing/mixing the layers. Splenocytes were washed twice with cold 1×PBS followed by total cell counting using Trypan Blue exclusion method and used further for cell based assays.
Splenocytes were cultured in RPMI complete media (RPMI+10% fetal bovine serum+1 mM sodium pyruvate+10,000 units/mL penicillin and 10,000 μg/mL streptomycin) and maintained in a CO2 incubator with 5% CO2 at 37° C.
CFSE is a dye that passively diffuses into cells and binds to intracellular proteins. 1×10^6 cells/mL of harvested splenocytes were treated with 5 μM of CFSE in pre-warmed 1×PBS/0.1% BSA solution for 10 min at 37° C. Excess CFSE was quenched using 5 volumes of ice-cold culture media to the cells and incubated on ice for 5 min CFSE labelled splenocytes were further given three washes with ice cold complete RPMI media. CFSE labelled 1×10^5 splenocytes added to wells containing either MDA-MB231 cells (1×10^5 cells cultured in high glucose DMEM medium) or recombinant human PDL-1 (100 ng/mL) and test compounds. Splenocytes were stimulated with anti-mouse CD3 and anti-mouse CD28 antibody (1 μg/mL each) and the culture was further incubated for 72 h at 37° C. with 5% CO2. Cells were harvested and washed thrice with ice cold FACS buffer and % proliferation was analysed by flow cytometry with 488 nm excitation and 521 nm emission filters.
Percent splenocyte proliferation was analysed using cell quest FACS program and percent rescue of splenocyte proliferation by compound was estimated after deduction of % background proliferation value and normalising to % stimulated splenocyte proliferation (positive control) as 100%.
Stimulated splenocytes: Splenocytes+anti-CD3/CD28 stimulation.
Background proliferation: Splenocytes+anti-CD3/CD28+PD-L1.
Compound proliferation: Splenocytes+anti-CD3/CD28+PD-L1+Compound. […]

T1 sequence (Q9EP73 with tags, fused parts or gaps limits assumed): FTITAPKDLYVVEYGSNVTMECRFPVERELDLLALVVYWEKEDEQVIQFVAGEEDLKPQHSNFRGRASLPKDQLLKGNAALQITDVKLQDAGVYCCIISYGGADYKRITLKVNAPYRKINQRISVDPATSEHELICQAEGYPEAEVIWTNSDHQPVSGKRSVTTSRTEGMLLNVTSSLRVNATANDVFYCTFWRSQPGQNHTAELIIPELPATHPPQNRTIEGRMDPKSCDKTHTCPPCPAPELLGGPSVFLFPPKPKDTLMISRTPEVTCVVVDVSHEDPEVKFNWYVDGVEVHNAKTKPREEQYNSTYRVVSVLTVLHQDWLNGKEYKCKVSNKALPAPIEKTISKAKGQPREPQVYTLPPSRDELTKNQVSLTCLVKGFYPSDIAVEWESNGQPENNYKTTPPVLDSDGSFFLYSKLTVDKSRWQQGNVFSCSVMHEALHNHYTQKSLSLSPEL

activation at 0.1 µM [%] | SMILES
76 | O=C1COCCOCCNC(=O)[C@H](Cc2ccc(O)cc2)NC(=O)N2CCCC2C(=O)NNC(=O)[C@H](Cc2ccc(O)cc2)N1 (some centres unmarked) [Compound 1]
57 | CC(O)[C@@H]1NC(=O)N[C@@H](CC(N)=O)C(=O)NNC(=O)[C@H](CCCCN)NC(=O)COCCOCCNC1=O (some centres unmarked) [Compound 2]
66 | CC(O)[C@@H]1NC(=O)N[C@@H](Cc2ccccc2)C(=O)NNC(=O)[C@H](CO)NC(=O)COCCOCCNC1=O (some centres unmarked) [Compound 3]
24 | NCCCC[C@@H]1NC(=O)COCCOCCNC(=O)[C@H](CCCCN)NC(=O)N[C@@H](CCCCN)C(=O)NNC1=O [Compound 5]
40 | CC(O)[C@@H]1NC(=O)N[C@@H](CCCCN)C(=O)NNC(=O)[C@H](CO)NC(=O)COCCOCCNC1=O (some centres unmarked) [Compound 6]
23 | CCC(C)[C@@H]1NC(=O)N[C@@H](C(C)O)C(=O)NCCOCCOCC(=O)N[C@@H](CO)C(=O)NNC1=O (some centres unmarked) [Compound 7]
46 | CC(O)[C@@H]1NC(=O)N[C@@H](CC(N)=O)C(=O)NNC(=O)[C@H](CC(=O)O)NC(=O)COCCOCCNC1=O (some centres unmarked) [Compound 9]
53 | O=C(O)C[C@@H]1NC(=O)COCCOCCNC(=O)[C@H](CC(=O)O)NC(=O)N[C@@H](CC(=O)O)C(=O)NNC1=O [Compound 10]
17 | O=C1COCCOCCNC(=O)[C@H](CO)NC(=O)N[C@@H](CO)C(=O)NNC(=O)[C@H](CO)N1 [Compound 11]
91 | CC(O)[C@@H]1NC(=O)COCCOCCNC(=O)[C@H](C(C)O)NC(=O)N[C@@H](C(C)O)C(=O)NNC1=O (some centres unmarked) [Compound 12]
53 | CC(C)C[C@@H]1NC(=O)N[C@@H](CC(N)=O)C(=O)NNC(=O)[C@H](CO)NC(=O)COCCOCCNC1=O [Compound 13]
40 | CCC(C)[C@@H]1NC(=O)N[C@@H](CCC(=O)O)C(=O)NCCOCCOCC(=O)N[C@@H](CCC(N)=O)C(=O)NNC1=O (some centres unmarked) [Compound 15]
30 | CC(O)[C@@H]1NC(=O)N[C@@H](Cc2ccccc2)C(=O)NNC(=O)[C@H](CCCCN)NC(=O)COCCOCCNC1=O (some centres unmarked) [Compound 16]
38 | CCC(C)[C@@H]1NC(=O)N[C@@H](CCC(N)=O)C(=O)NCCOCCOCC(=O)N[C@@H](CCC(=O)O)C(=O)NNC1=O (some centres unmarked) [Compound 17]
